Legend:
[1] = target: Tyrosine-protein kinase Fer (Homo sapiens) (UniProt P16591); details: Compound concentration 1000.0 nM
[2] = target: Dual serine/threonine and tyrosine protein kinase (Homo sapiens) (UniProt Q6XUX3); details: Compound concentration 1000.0 nM
[3] = target: TRAF2 and NCK-interacting protein kinase (Homo sapiens) (UniProt Q9UKE5); details: Compound concentration 1000.0 nM
[4] = system: Receptor-type tyrosine-protein kinase FLT3 (Homo sapiens), P36888 [R834Q]; details: Compound concentration 1000.0 nM
[5] = target: 5-hydroxytryptamine receptor 5A (Homo sapiens) (UniProt P47898); details: Compound concentration 10.0 uM
[6] = target: SNF-related serine/threonine-protein kinase (Homo sapiens) (UniProt Q9NRH2); details: Compound concentration 1000.0 nM
[7] = target: Uncharacterized serine/threonine-protein kinase SBK3 (Homo sapiens) (UniProt P0C264); details: Compound concentration 1000.0 nM
[8] = target: 5-hydroxytryptamine receptor 2A (Homo sapiens) (UniProt P28223); details: Compound concentration 10.0 uM
[9] = target: Myosin light chain kinase (Homo sapiens) (UniProt Q32MK0); details: Compound concentration 1000.0 nM
[10] = target: Protein-tyrosine kinase 6 (Homo sapiens) (UniProt Q13882); details: Compound concentration 1000.0 nM
[11] = target: Tyrosine-protein kinase receptor TYRO3 (Homo sapiens) (UniProt Q06418); details: Compound concentration 1000.0 nM
[12] = target: 5-hydroxytryptamine receptor 1E (Homo sapiens) (UniProt P28566); details: Compound concentration 10.0 uM
[13] = target: Myosin light chain kinase 2, skeletal/cardiac muscle (Homo sapiens) (UniProt Q9H1R3); details: Compound concentration 1000.0 nM
[14] = target: Rhodopsin kinase GRK1 (Homo sapiens) (UniProt Q15835); details: Compound concentration 1000.0 nM
[15] = target: Tyrosine-protein kinase receptor UFO (Homo sapiens) (UniProt P30530); details: Compound concentration 1000.0 nM
[16] = target: Tyrosine-protein kinase ITK/TSK (Homo sapiens) (UniProt Q08881); details: Compound concentration 1000.0 nM
[17] = system: Phosphatidylinositol 4,5-bisphosphate 3-kinase catalytic subunit alpha isoform (Homo sapiens), P42336 [C420R]; details: Compound concentration 1000.0 nM
[18] = target: Death-associated protein kinase 2 (Homo sapiens) (UniProt Q9UIK4); details: Compound concentration 1000.0 nM
[19] = target: Receptor tyrosine-protein kinase erbB-2 (Homo sapiens) (UniProt P04626); details: Compound concentration 1000.0 nM
[20] = system: Mast/stem cell growth factor receptor Kit (Homo sapiens), P10721 [D816H]; details: Compound concentration 1000.0 nM
[21] = target: Receptor-interacting serine/threonine-protein kinase 1 (Homo sapiens) (UniProt Q13546); details: Compound concentration 1000.0 nM
[22] = target: Tyrosine-protein kinase Fgr (Homo sapiens) (UniProt P09769); details: Compound concentration 1000.0 nM
[23] = system: Receptor-type tyrosine-protein kinase FLT3 (Homo sapiens), P36888 [UNDEFINED MUTATION]; details: Compound concentration 1000.0 nM
[24] = target: Calcium/calmodulin-dependent protein kinase kinase 2 (Homo sapiens) (UniProt Q96RR4); details: Compound concentration 1000.0 nM
[25] = target: Serine/threonine-protein kinase SBK1 (Homo sapiens) (UniProt Q52WX2); details: Compound concentration 1000.0 nM
[26] = target: Cyclin-dependent kinase 19 (Homo sapiens) (UniProt Q9BWU1); details: Compound concentration 1000.0 nM
[27] = system: Phosphatidylinositol 4,5-bisphosphate 3-kinase catalytic subunit alpha isoform (Homo sapiens), P42336 [E542K]; details: Compound concentration 1000.0 nM
[28] = target: Serine/threonine-protein kinase NIM1 (Homo sapiens) (UniProt Q8IY84); details: Compound concentration 1000.0 nM
[29] = target: Ribosomal protein S6 kinase alpha-2 (Homo sapiens) (UniProt Q15349); details: Compound concentration 1000.0 nM
[30] = target: Activin receptor type-2B (Homo sapiens) (UniProt Q13705); details: Compound concentration 1000.0 nM
[31] = target: Mitogen-activated protein kinase kinase kinase kinase 2 (Homo sapiens) (UniProt Q12851); details: Compound concentration 1000.0 nM
[32] = target: Serine/threonine-protein kinase Sgk3 (Homo sapiens) (UniProt Q96BR1); details: Compound concentration 1000.0 nM
[33] = target: Serine/threonine-protein kinase 4 (Homo sapiens) (UniProt Q13043); details: Compound concentration 1000.0 nM
[34] = target: Serine/threonine-protein kinase 24 (Homo sapiens) (UniProt Q9Y6E0); details: Compound concentration 1000.0 nM
[35] = target: Interleukin-1 receptor-associated kinase 3 (Homo sapiens) (UniProt Q9Y616); details: Compound concentration 1000.0 nM
[36] = target: Dual specificity mitogen-activated protein kinase kinase 5 (Homo sapiens) (UniProt Q13163); details: Compound concentration 1000.0 nM
[37] = target: Phosphatidylinositol 5-phosphate 4-kinase type-2 beta (Homo sapiens) (UniProt P78356); details: Compound concentration 1000.0 nM
[38] = target: Serine/threonine-protein kinase Nek6 (Homo sapiens) (UniProt Q9HC98); details: Compound concentration 1000.0 nM
[39] = target: Serine/threonine-protein kinase LATS2 (Homo sapiens) (UniProt Q9NRM7); details: Compound concentration 1000.0 nM
[40] = target: Mitogen-activated protein kinase kinase kinase 19 (Homo sapiens) (UniProt Q56UN5); details: Compound concentration 1000.0 nM
[41] = system: Mast/stem cell growth factor receptor Kit (Homo sapiens), P10721 [V559D]; details: Compound concentration 1000.0 nM
[42] = target: Cyclin-dependent kinase-like 2 (Homo sapiens) (UniProt Q92772); details: Compound concentration 1000.0 nM
[43] = target: STE20-like serine/threonine-protein kinase (Homo sapiens) (UniProt Q9H2G2); details: Compound concentration 1000.0 nM
[44] = target: Fibroblast growth factor receptor 3 (Homo sapiens) (UniProt P22607); details: Compound concentration 1000.0 nM
[45] = system: Tyrosine-protein kinase ABL1 (Homo sapiens), P00519 [E255K]; details: Compound concentration 1000.0 nM
Tyrosine-protein kinase ABL1 (Homo sapiens), P00519 [E255K], sequence (P00519 whole entry E255K): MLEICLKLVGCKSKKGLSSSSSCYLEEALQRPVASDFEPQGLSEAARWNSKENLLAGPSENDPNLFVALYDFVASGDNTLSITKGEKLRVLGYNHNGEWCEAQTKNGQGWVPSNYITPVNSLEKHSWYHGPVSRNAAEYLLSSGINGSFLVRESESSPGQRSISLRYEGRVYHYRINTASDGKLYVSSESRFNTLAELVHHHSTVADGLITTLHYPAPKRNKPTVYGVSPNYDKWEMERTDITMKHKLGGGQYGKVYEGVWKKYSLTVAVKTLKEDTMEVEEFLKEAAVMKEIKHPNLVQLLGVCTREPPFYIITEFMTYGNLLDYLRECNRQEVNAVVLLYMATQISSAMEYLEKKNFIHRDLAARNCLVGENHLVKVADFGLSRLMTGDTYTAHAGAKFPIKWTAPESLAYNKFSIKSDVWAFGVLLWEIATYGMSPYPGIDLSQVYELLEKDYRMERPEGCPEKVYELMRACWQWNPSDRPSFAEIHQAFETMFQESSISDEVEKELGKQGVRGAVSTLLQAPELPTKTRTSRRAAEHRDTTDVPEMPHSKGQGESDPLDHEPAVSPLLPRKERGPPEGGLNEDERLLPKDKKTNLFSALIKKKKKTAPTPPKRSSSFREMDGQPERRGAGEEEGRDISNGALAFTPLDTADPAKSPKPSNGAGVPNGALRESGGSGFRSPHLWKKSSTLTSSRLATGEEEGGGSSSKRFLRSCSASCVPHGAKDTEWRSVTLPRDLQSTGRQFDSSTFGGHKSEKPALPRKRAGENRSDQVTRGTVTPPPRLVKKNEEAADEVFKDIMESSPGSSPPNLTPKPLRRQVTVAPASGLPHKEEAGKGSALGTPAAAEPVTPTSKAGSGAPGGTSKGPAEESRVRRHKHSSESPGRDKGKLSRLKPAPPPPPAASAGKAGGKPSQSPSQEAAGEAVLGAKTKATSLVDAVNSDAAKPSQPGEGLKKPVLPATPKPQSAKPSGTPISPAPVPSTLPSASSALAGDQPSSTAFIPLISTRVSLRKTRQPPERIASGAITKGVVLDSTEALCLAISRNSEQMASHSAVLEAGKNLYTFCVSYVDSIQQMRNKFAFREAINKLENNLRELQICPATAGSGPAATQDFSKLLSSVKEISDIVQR

Myosin light chain kinase 2, skeletal/cardiac muscle (Homo sapiens), sequence (Q9H1R3 whole entry): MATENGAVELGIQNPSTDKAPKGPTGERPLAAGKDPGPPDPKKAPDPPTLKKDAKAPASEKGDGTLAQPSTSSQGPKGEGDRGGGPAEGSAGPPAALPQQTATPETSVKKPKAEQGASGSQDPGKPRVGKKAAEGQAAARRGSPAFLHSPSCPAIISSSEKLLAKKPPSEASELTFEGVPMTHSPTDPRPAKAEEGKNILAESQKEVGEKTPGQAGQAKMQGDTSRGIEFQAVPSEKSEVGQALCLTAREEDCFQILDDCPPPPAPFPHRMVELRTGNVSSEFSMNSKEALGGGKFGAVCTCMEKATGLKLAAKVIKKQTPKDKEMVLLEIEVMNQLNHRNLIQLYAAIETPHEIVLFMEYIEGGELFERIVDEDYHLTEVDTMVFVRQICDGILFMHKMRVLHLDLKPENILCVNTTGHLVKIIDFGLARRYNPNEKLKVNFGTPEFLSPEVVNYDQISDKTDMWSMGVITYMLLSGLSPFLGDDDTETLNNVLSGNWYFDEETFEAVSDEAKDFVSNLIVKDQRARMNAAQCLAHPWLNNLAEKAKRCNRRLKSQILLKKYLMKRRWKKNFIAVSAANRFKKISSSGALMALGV
Receptor-interacting serine/threonine-protein kinase 1 (Homo sapiens), sequence (Q13546 whole entry): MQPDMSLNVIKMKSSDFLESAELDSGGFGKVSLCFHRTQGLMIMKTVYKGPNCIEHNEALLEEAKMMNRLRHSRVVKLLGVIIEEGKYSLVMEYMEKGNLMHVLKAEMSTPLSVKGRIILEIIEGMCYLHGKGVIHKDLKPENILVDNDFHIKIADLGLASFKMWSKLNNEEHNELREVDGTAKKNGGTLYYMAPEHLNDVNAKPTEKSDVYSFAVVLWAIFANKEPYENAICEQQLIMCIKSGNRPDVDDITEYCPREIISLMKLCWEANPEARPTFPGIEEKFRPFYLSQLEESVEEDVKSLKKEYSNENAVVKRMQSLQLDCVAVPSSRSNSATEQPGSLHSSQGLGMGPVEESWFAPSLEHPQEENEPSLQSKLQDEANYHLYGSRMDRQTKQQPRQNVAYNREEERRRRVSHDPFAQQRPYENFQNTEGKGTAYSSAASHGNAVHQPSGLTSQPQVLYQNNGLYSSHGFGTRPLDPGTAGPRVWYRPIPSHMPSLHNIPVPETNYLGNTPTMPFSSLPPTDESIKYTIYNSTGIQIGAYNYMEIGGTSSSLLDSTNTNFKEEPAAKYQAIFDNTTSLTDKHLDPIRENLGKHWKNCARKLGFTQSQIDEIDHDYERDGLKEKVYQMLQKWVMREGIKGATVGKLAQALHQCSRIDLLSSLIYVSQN
Mitogen-activated protein kinase kinase kinase kinase 2 (Homo sapiens), sequence (Q12851 whole entry): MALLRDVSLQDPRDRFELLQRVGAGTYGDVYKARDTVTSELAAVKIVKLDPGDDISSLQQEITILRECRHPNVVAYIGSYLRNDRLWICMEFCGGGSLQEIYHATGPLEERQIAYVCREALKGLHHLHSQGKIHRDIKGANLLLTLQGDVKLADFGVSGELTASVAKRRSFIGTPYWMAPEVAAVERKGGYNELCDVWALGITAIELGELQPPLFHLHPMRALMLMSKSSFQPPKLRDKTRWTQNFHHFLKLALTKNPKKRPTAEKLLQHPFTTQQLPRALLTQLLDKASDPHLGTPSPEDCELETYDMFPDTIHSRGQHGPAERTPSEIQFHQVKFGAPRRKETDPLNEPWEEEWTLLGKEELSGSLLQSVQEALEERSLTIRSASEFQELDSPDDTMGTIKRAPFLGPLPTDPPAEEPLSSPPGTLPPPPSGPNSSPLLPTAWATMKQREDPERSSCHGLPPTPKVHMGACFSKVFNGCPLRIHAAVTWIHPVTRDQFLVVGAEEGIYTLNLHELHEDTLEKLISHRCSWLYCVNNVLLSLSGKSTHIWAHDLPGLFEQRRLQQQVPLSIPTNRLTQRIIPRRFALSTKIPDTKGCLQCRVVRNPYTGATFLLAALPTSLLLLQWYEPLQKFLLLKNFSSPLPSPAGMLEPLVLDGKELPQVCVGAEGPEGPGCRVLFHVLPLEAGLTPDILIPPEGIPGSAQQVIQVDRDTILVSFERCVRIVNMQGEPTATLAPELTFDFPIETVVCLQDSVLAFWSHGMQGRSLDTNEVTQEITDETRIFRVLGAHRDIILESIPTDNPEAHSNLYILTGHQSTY
Tyrosine-protein kinase ITK/TSK (Homo sapiens), sequence (Q08881 whole entry, canonical isoform): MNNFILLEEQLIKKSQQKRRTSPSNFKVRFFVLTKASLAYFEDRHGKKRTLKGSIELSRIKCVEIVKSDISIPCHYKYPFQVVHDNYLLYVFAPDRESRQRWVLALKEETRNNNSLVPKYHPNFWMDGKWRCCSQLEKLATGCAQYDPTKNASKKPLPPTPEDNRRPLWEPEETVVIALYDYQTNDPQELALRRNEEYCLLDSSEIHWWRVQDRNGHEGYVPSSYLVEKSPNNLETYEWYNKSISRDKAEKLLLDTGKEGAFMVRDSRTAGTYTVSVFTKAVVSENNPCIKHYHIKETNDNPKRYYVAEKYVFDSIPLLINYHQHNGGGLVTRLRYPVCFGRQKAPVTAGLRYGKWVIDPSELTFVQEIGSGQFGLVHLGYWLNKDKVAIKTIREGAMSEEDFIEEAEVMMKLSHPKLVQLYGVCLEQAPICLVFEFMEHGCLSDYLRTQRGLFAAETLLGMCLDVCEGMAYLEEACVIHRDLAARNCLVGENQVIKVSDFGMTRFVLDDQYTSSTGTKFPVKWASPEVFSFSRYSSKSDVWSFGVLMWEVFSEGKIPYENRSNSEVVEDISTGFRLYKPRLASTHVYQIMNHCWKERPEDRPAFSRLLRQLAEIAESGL
Serine/threonine-protein kinase SBK1 (Homo sapiens), sequence (Q52WX2 whole entry): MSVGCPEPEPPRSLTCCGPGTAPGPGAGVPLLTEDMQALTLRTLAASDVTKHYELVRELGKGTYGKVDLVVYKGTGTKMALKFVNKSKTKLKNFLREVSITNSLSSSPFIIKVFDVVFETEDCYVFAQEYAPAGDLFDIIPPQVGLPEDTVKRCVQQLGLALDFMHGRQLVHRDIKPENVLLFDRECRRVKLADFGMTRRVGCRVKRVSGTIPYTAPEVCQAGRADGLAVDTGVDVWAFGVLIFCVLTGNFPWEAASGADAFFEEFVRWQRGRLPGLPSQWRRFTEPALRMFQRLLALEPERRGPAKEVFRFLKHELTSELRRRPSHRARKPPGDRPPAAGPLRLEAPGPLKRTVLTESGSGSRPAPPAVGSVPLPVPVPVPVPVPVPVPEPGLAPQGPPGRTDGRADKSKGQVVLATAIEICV
Fibroblast growth factor receptor 3 (Homo sapiens), sequence (P22607 23-806 limits assumed): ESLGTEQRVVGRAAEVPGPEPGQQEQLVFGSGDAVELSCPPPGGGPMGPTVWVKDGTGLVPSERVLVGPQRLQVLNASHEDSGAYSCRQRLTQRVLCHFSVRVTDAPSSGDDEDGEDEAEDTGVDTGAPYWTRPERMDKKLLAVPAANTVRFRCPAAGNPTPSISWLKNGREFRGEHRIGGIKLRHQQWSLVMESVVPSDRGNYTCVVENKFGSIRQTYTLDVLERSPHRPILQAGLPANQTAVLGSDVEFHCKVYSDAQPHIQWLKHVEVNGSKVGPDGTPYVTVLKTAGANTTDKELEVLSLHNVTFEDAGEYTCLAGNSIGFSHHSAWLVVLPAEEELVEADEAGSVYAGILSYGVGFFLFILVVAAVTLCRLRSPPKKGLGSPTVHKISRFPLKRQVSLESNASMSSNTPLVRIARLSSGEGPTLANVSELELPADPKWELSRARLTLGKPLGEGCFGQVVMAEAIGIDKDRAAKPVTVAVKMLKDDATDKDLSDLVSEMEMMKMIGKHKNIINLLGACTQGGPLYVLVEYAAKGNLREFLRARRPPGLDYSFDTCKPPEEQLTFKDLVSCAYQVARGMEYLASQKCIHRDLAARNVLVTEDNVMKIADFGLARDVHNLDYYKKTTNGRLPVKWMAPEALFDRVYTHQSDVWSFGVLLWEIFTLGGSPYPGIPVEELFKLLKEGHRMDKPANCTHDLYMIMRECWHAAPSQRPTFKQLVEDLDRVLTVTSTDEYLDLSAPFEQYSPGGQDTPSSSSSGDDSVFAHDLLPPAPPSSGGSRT

Nc1cnc(N2CCc3cc(S(=O)(=O)Nc4c(F)cc(Cl)cc4F)cc(N4CCCC4=O)c32)nc1
residual activity [1]: 100% | residual activity [2]: 100% | residual activity [3]: 100% | residual activity [4]: 77% | inhibition [5]: -4.87% | residual activity [6]: 100% | residual activity [7]: 100% | inhibition [8]: -2.82% | residual activity [9]: 100% | residual activity [10]: 100% | residual activity [11]: 100% | inhibition [12]: -4.55% | residual activity [13]: 87% | residual activity [14]: 100% | residual activity [15]: 69% | residual activity [16]: 100% | residual activity [17]: 84% | residual activity [18]: 91% | residual activity [19]: 100% | residual activity [20]: 100% | residual activity [21]: 92% | residual activity [22]: 100% | residual activity [23]: 96% | residual activity [24]: 100% | residual activity [25]: 83% | residual activity [26]: 100% | residual activity [27]: 72% | residual activity [28]: 100% | residual activity [29]: 100% | residual activity [30]: 80% | residual activity [31]: 90% | residual activity [32]: 100% | residual activity [33]: 100% | residual activity [34]: 100% | residual activity [35]: 89% | residual activity [36]: 84% | residual activity [37]: 100% | residual activity [38]: 100% | residual activity [39]: 100% | residual activity [40]: 100% | residual activity [41]: 100% | residual activity [42]: 85% | residual activity [43]: 100% | residual activity [44]: 100% | residual activity [45]: 85%

Cn1nc(C(F)(F)F)cc1-c1cnc(N2CCc3cc(S(=O)(=O)Nc4c(F)cc(Cl)cc4F)cc(N4CCCC4=O)c32)nc1 [TP-020]
residual activity [1]: 100% | residual activity [2]: 83% | residual activity [3]: 100% | residual activity [4]: 97% | inhibition [5]: 7.89% | residual activity [6]: 87% | residual activity [7]: 79% | inhibition [8]: 8.54% | residual activity [9]: 84% | residual activity [10]: 90% | residual activity [11]: 100% | inhibition [12]: 14.8% | residual activity [13]: 100% | residual activity [14]: 95% | residual activity [15]: 93% | residual activity [16]: 97% | residual activity [17]: 76% | residual activity [18]: 94% | residual activity [19]: 79% | residual activity [20]: 77% | residual activity [21]: 100% | residual activity [22]: 90% | residual activity [23]: 32% | residual activity [24]: 93% | residual activity [25]: 92% | residual activity [26]: 100% | residual activity [27]: 85% | residual activity [28]: 80% | residual activity [29]: 77% | residual activity [30]: 87% | residual activity [31]: 95% | residual activity [32]: 78% | residual activity [33]: 92% | residual activity [34]: 90% | residual activity [35]: 100% | residual activity [36]: 83% | residual activity [37]: 100% | residual activity [38]: 100% | residual activity [39]: 93% | residual activity [40]: 82% | residual activity [41]: 99% | residual activity [42]: 100% | residual activity [43]: 100% | residual activity [44]: 100% | residual activity [45]: 89%

— ChEMBL document CHEMBL4507302, “Data for DCP probe TP-020” (2021)
